How the values were obtained:
Assay type in all cases: cell-based, Chinese Hamster
[1] = tested on: CHO cell line producing mAb #1; test: Example 7 culture growth & productivity
Protocol: (§1) For all studies with CHO cell lines described throughout this invention, samples were collected daily and measured for cell density and viability using a Cedex cell counter. Retention samples for titer analysis via Poros A method were collected by centrifugation at 12,000 RPM for 5 min when the culture viability began declining. The cultures were harvested by collecting 125 mL aliquots and centrifuging at 3,000 RPM for 30 min when culture viability was near or below 50%. All supernatants were stored at −80° C. until analysis.
Growth and production media for the CHO cell line producing mAb #1 were prepared using a proprietary Life Technologies Gibco chemically defined media, GIA-1. […] All media were filtered through Corning 0.5 L or 1 L filter systems (0.22 μm PES) and stored at 4° C. until use.
Upon thaw, cells were expanded for 6 (3 day each) passages in a combination of 250 mL, 500 mL, and 1000 mL Corning vented non-baffled shake flasks. Production cultures were initiated in duplicate 500 mL Corning vented non-baffled shake flasks (200 mL working volume) at an initial VCD of approximately 0.5×10^6 cells/mL. Cultures were maintained on orbital shakers at 125 RPM in a dry incubator at 35° C. and 5% CO2. A glucose solution (1.25% (v/v) of 40% solution) was fed when the media glucose concentration fell below 3 g/L. […]

[2] = tested on: CHO cell line producing mAb #2; test: Example 8 oligosaccharide analysis, CDM GIA-1, fed-batch 3 L bioreactors
Protocol: as §1
(§2) For all studies, the harvest samples were Protein A purified and prepared for the oligosaccharide assay using the following procedures. As a first step in the process of establishing the identity and quantifying the oligosaccharides, they are released from the protein by enzymatic digestion with N-glycanase. Once the glycans are released, the free reducing end of each glycan is labeled by reductive amination with a fluorescent tag, 2-aminobenzamide (2-AB). The resulting labeled glycans are separated by normal-phase HPLC (NP-HPLC) in acetonitrile: 50 mM ammonium formate, pH 4.4, and detected by a fluorescence detector. Quantitation is based on the relative area percent of detected sugars. Throughout this invention, the relative area percentages of the agalactosyl fucosylated biantennary oligosaccharides, denoted as NGA2F+NGA2F-GlcNAc sum, and the galactose-containing fucosylated biantennary oligosaccharides NA1F+NA2F sum are reported and discussed.
Growth and production media for the mAb #2 producing CHO cell line were prepared using the proprietary Life Technologies Gibco chemically defined media, GIA-1.
Upon thaw, cells were expanded in Corning vented non-baffled shake flasks maintained on orbital shakers at 140 RPM, and in 10 L cell bags (2 L working volume) maintained at 25 RPM, 7° angle, 0.25 SLPM airflow in a dry incubator at 36° C. and 5% CO2. Production cultures were initiated in 3 L bioreactors (1.5 L initial working volume) at 36° C., 25% dissolved oxygen, 200 RPM, and pH 7.0. The chemically-defined feed from Life Technologies Gibco JCL-5 was added as follows: 3% (v/v)—day 3, 5%—day 5, 7%—day 7, 10%—day 9, and 10%—day 11. […] Bioreactors were harvested at viability of approximately 70% or below or on production day 15, whichever condition occurred first.
Galactose was supplemented at 0, 15, 30, and 60 mM concentrations in both production and feed media.

[3] = tested on: adalimumab-producing CHO cell line; test: Example 3 oligosaccharide analysis, hydrolysate-based media, batch shake flasks
Protocol: as §1, §2
All media were filtered through Corning 0.5 L or 1 L filter systems (0.22 μm PES) and stored at 4° C. until use.
Production cultures were initiated in duplicate 500 mL Corning vented non-baffled shake flasks (200 mL working volume) at an initial VCD of approximately 0.5×10^6 cells/mL. Cultures were maintained on orbital shakers at 110 RPM in a dry incubator at 35° C. and 5% CO2. A glucose solution (1.25% (v/v) of 40% solution) was fed when the media glucose concentration fell below 3 g/L.

[4] = tested on: adalimumab-producing CHO cell line; test: Example 1 culture growth & productivity, batch shake flasks; conditions: galactose 0 to 100 mM and/or manganese chloride up to 80 μM
Protocol: All supernatants were stored at −80° C. until analysis. […] Culture growth, productivity, and product quality data for control cultures is the average of the 3 experiments.

[5] = tested on: adalimumab-producing CHO cell line; test: Example 1 oligosaccharide analysis, batch shake flasks, CDM GIA-1
Protocol: The studies were performed in either a batch process in shake flasks or a fed-batch process in 3 L bioreactors.
Growth and production media for the adalimumab-producing CHO cell line were prepared using a proprietary Life Technologies Gibco chemically defined media, GIA-1. […] All media were filtered through Corning 0.5 L or 1 L filter systems 0.22 μm Poly(Ether Sulfone) (PES) and stored at 4° C. until use.
The cell line utilized for both studies was generated from the adalimumab-producing CHO cell utilized in Example 3 by adapting it to chemically defined GIA-1 media for 7 (2 to 3 day each) passages in a combination of 250 mL and 500 mL Corning vented non-baffled shake flasks before freezing.
Upon thaw, for the batch shake flask study, cells were expanded for 3 to 5 (2 to 3 day each) passages in a combination of 250 mL and 500 mL Corning vented non-baffled shake flasks. Production cultures were initiated in duplicate 500 mL Corning vented non-baffled shake flasks (200 mL working volume) at an initial viable cell density (VCD) of approximately 0.5×10^6 cells/mL. Cultures were maintained on orbital shakers at 110 revolutions per minute (RPM) in a dry incubator at 35° C. and 5% CO2. The shake flask study was run in an extended batch mode by feeding a glucose solution (1.25% (v/v) of 40% solution) when the media glucose concentration fell below 3 g/L.
as §1, §2
Galactose was supplemented at the following levels in production media: 0, 10, 20, 40, and 100 mM. […] Culture growth, productivity, and product quality data for control cultures is the average of the 3 experiments.

[6] = manganese chloride alone, range 0 to 75 μM
[7] = 100 μM manganese chloride alone

| Compound | culture growth ([1]; galactose alone) | decrease in the NGA2F+NGA2F-GlcNac sum ([2]; 15 mM galactose alone) [%] | decrease in the NGA2F+NGA2F-GlcNac sum ([2]; 30 mM galactose alone) [%] | maximum decrease in the NGA2F+NGA2F-GlcNac sum ([2]; galactose alone up to 60 mM) [%] | maximum increase in the NA1F+NA2F sum ([2]; galactose alone up to 60 mM) [%] | maximum decrease in the NGA2F+NGA2F-GlcNac sum ([3]; galactose alone up to 40 mM) [%] | maximum increase in the NA1F+NA2F sum ([3]; galactose alone up to 40 mM) [%] | cell growth and viability profiles [4] | decrease in the NGA2F+NGA2F-GlcNac sum ([5]; 40 mM galactose alone) [%] | maximum change in the NA1F+NA2F oligosaccharides ([5]; 100 mM galactose alone) [%] | maximum change in the NGA2F+NGA2F-GlcNac ([5]; 100 mM galactose alone) [%] | culture growth ([1]; manganese chloride alone 0 to 20 μM) | decrease in the NGA2F+NGA2F-GlcNac sum ([2]; 25 μM manganese chloride alone) [%] | decrease in the NGA2F+NGA2F-GlcNac sum ([2]; 50 μM manganese chloride alone) [%] | maximum decrease in the NGA2F+NGA2F-GlcNac sum [2, 6] [%] | maximum increase in the NA1F+NA2F sum [2, 6] [%] | decrease in the NGA2F+NGA2F-GlcNac sum ([3]; manganese chloride alone, range 0 to 40 μM, within assay variability) | decrease in the NGA2F+NGA2F-GlcNac sum ([5]; 40 μM manganese chloride alone) [%] | maximum change in the NA1F+NA2F oligosaccharides [5, 7] [%] | maximum change in the NGA2F+NGA2F-GlcNac [5, 7] [%] |
| --- | --- | --- | --- | --- | --- | --- | --- | --- | --- | --- | --- | --- | --- | --- | --- | --- | --- | --- | --- | --- |
| O=C[C@H](O)[C@@H](O)[C@@H](O)[C@H](O)CO [galactose, D(+)Galactose] | grew to a lower maximum VCD compared to the control | 7 | 12 | 12 | 11 | 4 | 4 | comparable to control cultures | 6 | 7 | 7 |  |  |  |  |  |  |  |  |  |
| Manganese (II) Chloride [manganese chloride] |  |  |  |  |  |  |  | comparable to control cultures |  |  |  | grew comparable to the control cultures | 10 | 18 | 18 | 16 | approximately 1% | 6 | 8 | 9 |
